These results are taken from patent US10206907B2, “Compounds useful for the treatment of degenerative and inflammatory diseases” (GALAPAGOS NV, priority 2008, dated 2019).

Series [1] has as its target Recombinant human JAK1 catalytic domain (Homo sapiens (Human), UniProt P23458). Description: JAK1 inhibition assay. Format: biochemical. As to conditions: semi-quantitative score. An outline of the steps:
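IC50 values come from dose-response series, with each point expressed as percent inhibition of cpm. Vehicle sets full activity and 10 μM staurosporine sets background. Incorporated radioactivity counted by scintillation after washing with 75 mM phosphoric acid.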

Series [2] can be described thus: Microsomal stability, human liver microsomes. It counts as in vitro ADME. As to conditions: percentage of compound remaining after 60 minutes, 3 μM compound. As to the method: (§1) 40 μL of deionised water was added to a well of a polypropylene Matrix 2D barcode labelled storage tube (Thermo Scientific) and pre-incubated at 37° C.
(§2) A co-factor containing MgCl2, glucose-6-phosphate and NADP+ was prepared in deionised water and placed on ice before use.
(§3) A final working solution containing liver microsomes (Xenotech of a species of interest (human, mouse, rat, dog), previously described G6PDH and co-factors was prepared and this mix was incubated for no longer than 20 minutes at room temperature.
(§4) 30 μL of the pre-heated compound dilution was added to 40 μL of pre-heated water in the Matrix tubes and 30 μL of the microsomal mix was added.
(§5) To measure percentage remaining of compound at time zero MeOH or ACN was added (1:1) to the well before adding the microsomal mix.
(§6) The samples which were not stopped are incubated at 37° C., 300 rpm and after 1 hour of incubation the reaction was stopped with MeOH or ACN (1:1).
(§7) After stopping the reaction the samples were mixed and placed on ice for 30 min to precipitate the proteins.
(§8) The samples were analyzed on LCMS with a flow rate of 1 mL/min. Solvent A was 15 mM ammonia and solvent B was methanol or acetonitrile, depending on the stop solution used. […] The percentage remaining after 1 hour incubation was calculated from time 0 and was calculated as the percentage remaining.
(§9) The data on microsomal stability are expressed as a percentage of the total amount of compound remaining after 60 minutes.

Series [3] is described as follows: Microsomal stability, rat liver microsomes. Format: in vitro ADME. As to conditions: percentage of compound remaining after 60 minutes, 3 μM compound. Here is the method:
as §1, §2, §3, §4, §5, §6, §7, §8, §9
(Microsomes from liver hold many membrane-bound enzymes, among them those of drug oxidation.)

In the next series the test system is MMP13 in SW1353 cells. Description: OSM/IL-1β signaling assay (MMP13 levels in SW1353 cells).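 Also: secreted MMP13 captured by antibody, activated with APMA and its activity read by fluorescence, inhibition scaled between vehicle-treated triggered wells (0%) and untriggered wells (100%).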 As to conditions: Homo sapiens; SW1353 cells, OSM and IL-1β triggered, MMP13 levels 48 hours after triggering; read-out: MMP13 EC50. It counts as cell-based.
Series [4] deals with JAK-STAT signalling in HeLa cells. Description: JAK-STAT signalling assay (OSM-triggered pSTAT1(2)-luciferase reporter in HeLa cells). As to conditions: Homo sapiens; HeLa cells, OSM-triggered pSTAT1(2)-luciferase reporter; read-out: STAT signalling EC50. It counts as cell-based. As to the method: HeLa cells were maintained in Dulbecco's Modified Eagle's Medium (DMEM) containing 10% heat inactivated fetal calf serum, 100 U/mL penicillin and 100 μg/mL streptomycin. HeLa cells were used at 70% confluence for transfection. 20,000 cells in 87 μL cell culture medium were transiently transfected with 40 ng pSTAT1(2)-luciferase reporter (Panomics), 8 ng of LacZ reporter as internal control reporter and 52 ng of pBSK using 0.32 μL Jet-PEI (Polyplus) as transfection reagent per well in 96-well plate format. After overnight incubation at 37° C., 10% CO2, transfection medium was removed.
40 μL of cell lysate was used to read β-galactosidase activity by adding 180 μL βGal solution (30 μl ONPG 4 mg/mL+150 μL β-Galactosidase buffer (0.06 M Na2HPO4, 0.04 M NaH2PO4, 1 mM MgCl2)) for 20 min.
Luciferase activity was measured using 40 μL cell lysate plus 40 μl of Steadylite® as described by the manufacturer (Perkin Elmer), on the Envision (Perkin Elmer).
The positive and negative controls were used to calculate z’ and ‘percent inhibition’ (PIN) values.
PIN values were plotted for compounds tested in dose-response and EC50 values were derived.
In general terms: In a reporter assay the amount or activity of a reporter protein is the signal.

Series [5] concerns the target Recombinant human JAK2 catalytic domain (Homo sapiens (Human), UniProt O60674). Put plainly: JAK2 inhibition assay. Format: biochemical. As to conditions: semi-quantitative score. In outline: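 Activity was taken as vehicle cpm minus cpm with 10 μM staurosporine, and inhibition was expressed on that scale. Incubation was 90 min at 30 °C, followed by acid quench, phosphoric acid washes and Microscint counting. Compounds were tested as dose series to obtain IC50.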

Recombinant human JAK2 catalytic domain, sequence (O60674 808-1132): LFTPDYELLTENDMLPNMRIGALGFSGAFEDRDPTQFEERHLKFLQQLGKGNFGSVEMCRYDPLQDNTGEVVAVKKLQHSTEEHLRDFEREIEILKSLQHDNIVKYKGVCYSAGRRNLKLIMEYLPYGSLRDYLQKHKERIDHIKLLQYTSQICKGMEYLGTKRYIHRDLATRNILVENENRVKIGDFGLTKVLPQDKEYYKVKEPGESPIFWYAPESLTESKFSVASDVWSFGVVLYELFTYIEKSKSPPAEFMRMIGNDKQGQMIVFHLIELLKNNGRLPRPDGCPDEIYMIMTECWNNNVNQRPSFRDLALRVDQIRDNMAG
Recombinant human JAK1 catalytic domain, sequence (P23458 850-1154): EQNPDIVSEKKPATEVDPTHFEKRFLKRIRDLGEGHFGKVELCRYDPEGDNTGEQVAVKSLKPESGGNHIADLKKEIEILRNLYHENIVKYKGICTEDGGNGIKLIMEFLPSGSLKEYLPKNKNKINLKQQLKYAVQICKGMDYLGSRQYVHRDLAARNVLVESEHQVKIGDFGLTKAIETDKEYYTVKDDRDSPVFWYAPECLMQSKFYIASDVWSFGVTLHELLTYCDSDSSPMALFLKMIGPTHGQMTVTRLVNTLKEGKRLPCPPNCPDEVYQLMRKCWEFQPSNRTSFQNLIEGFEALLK

What is called IC50 is the midpoint of a concentration-inhibition curve. As to `O=C(NC1CC1)c1ccc(-c2cccc3nc(NC(=O)C4CC4)nn23)cc1` [Compound 11, 4-(2-(cyclopropanecarboxamido)-[1,2,4]triazolo[1,5-a]pyridin-5-yl)-N-cyclopropylbenzamide], the IC50 in series [1] is 101 to 500 nM. Moreover, the “Microsomal Stability Human (%)” value in series [2] is recorded as “**** (**** 76-100)”. Besides, the “Microsomal Stability Rat (%)” value in series [3] was “**** (**** 76-100)”.

What is called EC50 is the concentration that produces a half-maximal response. For `O=C(Nc1ccncc1)c1ccc(-c2cccc3nc(NC(=O)C4CC4)nn23)cc1` [Compound 25, 4-(2-(cyclopropanecarboxamido)-[1,2,4]triazolo[1,5-a]pyridin-5-yl)-N-(pyridin-4-yl)benzamide], the IC50 in series [1] is less than 100 nM. Also, the EC50 (in the series on MMP13 in SW1353 cells; in series [4]) was greater than 1000 nM in each case. Besides, the “Microsomal Stability Human (%)” value in series [2] is “* (* 0-25)”. The “Microsomal Stability Rat (%)” value in series [3] is listed as “* (* 0-25)”.

As for `O=C(Nc1nc2cccc(-c3ccc(NS(=O)(=O)c4cccnc4)cc3)n2n1)C1CC1` [Compound 64, N-(5-(4-(pyridine-3-sulfonamido)phenyl)-[1,2,4]triazolo[1,5-a]pyridin-2-yl)cyclopropanecarboxamide], the IC50 in series [1] was less than 100 nM. Further, the EC50 (with MMP13 in SW1353 cells; in series [4]) was greater than 1000 nM throughout. Also, the “Microsomal Stability Human (%)” value in series [2] is reported as “**** (**** 76-100)”. In addition, the “Microsomal Stability Rat (%)” value in series [3] was “*** (*** 51-75)”.

As for `O=C(Nc1nc2cccc(-c3ccc(C(=O)N4CCCCC4)cc3F)n2n1)C1CC1` [Compound 89, N-(5-(2-fluoro-4-(piperidine-1-carbonyl)phenyl)-[1,2,4]triazolo[1,5-a]pyridin-2-yl)cyclopropanecarboxamide], the IC50 in series [1] was less than 100 nM. Further, the EC50 (in the series on MMP13 in SW1353 cells; in series [4]) was greater than 1000 nM each time. Further, in series [2], the “Microsomal Stability Human (%)” value was “*** (*** 51-75)”. Besides, the “Microsomal Stability Rat (%)” value in series [3] is given as “* (* 0-25)”.

In the case of `O=C(Nc1nc2cccc(-c3ccc(C(=O)N4CCN(c5cccc(Cl)c5)CC4)cc3)n2n1)C1CC1` [Compound 113], the IC50 in series [1] is less than 100 nM. Further, the EC50 (in the series on MMP13 in SW1353 cells; in series [4]) was greater than 1000 nM in each case. The “Microsomal Stability Human (%)” value in series [2] is “** (** 26-50)”. The “Microsomal Stability Rat (%)” value in series [3] was “*** (*** 51-75)”.

In the case of `CN(C(=O)COc1ccc(-c2cccc3nc(NC(=O)C4CC4)nn23)cc1)c1ccccc1` [Compound 118, N-(5-(4-(2-(methyl(phenyl)amino)-2-oxoethoxy)phenyl)-[1,2,4]triazolo[1,5-a]pyridin-2-yl)cyclopropanecarboxamide], in series [1], the IC50 is less than 100 nM. Besides, the EC50 (in the series with MMP13 in SW1353 cells; in series [4]) was greater than 1000 nM throughout. In series [2], the “Microsomal Stability Human (%)” value is listed as “* (* 0-25)”. Besides, the “Microsomal Stability Rat (%)” value in series [3] was “* (* 0-25)”.

On to `O=C(N[C@@H]1CCN(Cc2ccccc2)C1)c1ccc(-c2cccc3nc(NC(=O)C4CC4)nn23)cc1` [Compound 120, (R)-N-(1-benzylpyrrolidin-3-yl)-4-(2-(cyclopropanecarboxamido)-[1,2,4]triazolo[1,5-a]pyridin-5-yl)benzamide], for which the IC50 in series [1] was less than 100 nM. In addition, the EC50 (with MMP13 in SW1353 cells; in series [4]) was greater than 1000 nM each time. The “Microsomal Stability Human (%)” value in series [2] is “* (* 0-25)”. Also, the “Microsomal Stability Rat (%)” value in series [3] is “* (* 0-25)”.

On to `O=C(Nc1nc2cccc(-c3ccc(NS(=O)(=O)CCOc4ccccc4)cc3)n2n1)C1CC1` [Compound 122, N-(5-(4-(2-phenoxyethylsulfonamido)phenyl)-[1,2,4]triazolo[1,5-a]pyridin-2-yl)cyclopropanecarboxamide], for which the IC50 in series [1] is less than 100 nM. Besides, the EC50 (with MMP13 in SW1353 cells; in series [4]) was greater than 1000 nM in each case. For the same molecule, the “Microsomal Stability Human (%)” value in series [2] is recorded as “* (* 0-25)”. In addition, the “Microsomal Stability Rat (%)” value in series [3] is “* (* 0-25)”.

With `CN(Cc1ccccc1)c1ccc(-c2cccc3nc(NC(=O)C4CC4)nn23)cc1` [Compound 157, N-(5-(4-(benzyl(methyl)amino)phenyl)-[1,2,4]triazolo[1,5-a]pyridin-2-yl)cyclopropanecarboxamide], in series [1], the IC50 is less than 100 nM. The “Microsomal Stability Human (%)” value in series [2] is reported as “* (* 0-25)”. In series [4], the EC50 is greater than 1000 nM. Moreover, the “Microsomal Stability Rat (%)” value in series [3] is recorded as “* (* 0-25)”.

`COc1ccc(NC(=O)c2ccc(-c3cccc4nc(NC(=O)C5CC5)nn34)cc2)cn1` [Compound 203, 4-[2-(Cyclopropanecarbonyl-amino)-[1,2,4]triazolo[1,5-a]pyridin-5-yl]-N-(6-methoxy-pyridin-3-yl)-benzamide]: the IC50 was 101 to 500 nM in series [5] and less than 100 nM in series [1]. In addition, the “Microsomal Stability Human (%)” value in series [2] was “* (* 0-25)”. The EC50 in series [4] is greater than 1000 nM. In addition, the “Microsomal Stability Rat (%)” value in series [3] was “*** (*** 51-75)”.

Regarding `O=C(Nc1ccc(N2CCOCC2)nc1)c1ccc(-c2cccc3nc(NC(=O)C4CC4)nn23)cc1` [Compound 204, 4-[2-(Cyclopropanecarbonyl-amino)-[1,2,4]triazolo[1,5-a]pyridin-5-yl]-N-(6-morpholin-4-yl-pyridin-3-yl)-benzamide], the IC50 in series [1] was less than 100 nM. In addition, the “Microsomal Stability Human (%)” value in series [2] is listed as “* (* 0-25)”. The EC50 in series [4] was greater than 1000 nM. Moreover, the “Microsomal Stability Rat (%)” value in series [3] was “* (* 0-25)”.

Regarding `O=C(Nc1cccnc1)c1ccc(-c2cccc3nc(NC(=O)C4CC4)nn23)cc1` [Compound 206, 4-[2-(Cyclopropanecarbonyl-amino)-[1,2,4]triazolo[1,5-a]pyridin-5-yl]-N-pyridin-3-yl-benzamide], the concentration for half-maximal inhibition (IC50) is 101 to 500 nM in series [5] and less than 100 nM in series [1]. Besides, the “Microsomal Stability Human (%)” value in series [2] is on record as “**** (**** 76-100)”. Also, the EC50 in series [4] is greater than 1000 nM. Moreover, the “Microsomal Stability Rat (%)” value in series [3] is “*** (*** 51-75)”.

In the case of `O=C(Nc1nc2cccc(-c3ccc(C(=O)N4CCCC(CO)C4)cc3)n2n1)C1CC1` (stereo not drawn) [Compound 276, Cyclopropanecarboxylic acid {5-[4-(3-hydroxymethyl-piperidine-1-carbonyl)-phenyl]-[1,2,4]triazolo[1,5-a]pyridin-2-yl}-amide], the IC50 is 101 to 500 nM in series [5] and less than 100 nM in series [1]. The EC50 (in the series on MMP13 in SW1353 cells; in series [4]) was greater than 1000 nM each time.

For the molecule `CN(C)C1CCN(C(=O)c2ccc(-c3cccc4nc(NC(=O)C5CC5)nn34)cc2)C1` (stereo not drawn) [Compound 289, Cyclopropanecarboxylic acid {5-[4-(3-dimethylamino-pyrrolidine-1-carbonyl)-phenyl]-[1,2,4]triazolo[1,5-a]pyridin-2-yl}-amide], the IC50 in series [5] was 501 to 1000 nM; in series [1], less than 100 nM. In addition, the 50% effective concentration (EC50) (with MMP13 in SW1353 cells; in series [4]) was greater than 1000 nM each time.

Regarding `O=C(Nc1nc2cccc(-c3ccc(C(=O)N4CCC(COc5cccnc5)CC4)cc3)n2n1)C1CC1` [Compound 292, Cyclopropanecarboxylic acid (5-{4-[4-(pyridin-3-yloxymethyl)-piperidine-1-carbonyl]-phenyl}-[1,2,4]triazolo[1,5-a]pyridin-2-yl)-amide], the IC50 in series [5] was 101 to 500 nM; in series [1] it was less than 100 nM. The EC50 (in the series with MMP13 in SW1353 cells; in series [4]) was greater than 1000 nM throughout.

As to `O=C(Nc1nc[nH]n1)c1ccc(-c2cccc3nc(NC(=O)C4CC4)nn23)cc1` [Compound 331, 4-[2-(Cyclopropanecarbonyl-amino)-[1,2,4]triazolo[1,5-a]pyridin-5-yl]-N-(1H-1,2,4-triazol-3-yl)-benzamide], the IC50 was less than 100 nM in series [5] and 101 to 500 nM in series [1]. In series [2], the “Microsomal Stability Human (%)” value is listed as “* (* 0-25)”. Also, the “Microsomal Stability Rat (%)” value in series [3] was “* (* 0-25)”.
